# Data published in patent publication US8436043B2 (Takeda Pharmaceutical Company Limited, priority 2008, dated 2013).
# Molecular target: T1, human glucagon receptor (Homo sapiens, UniProt P47871)
# T1 construct: made in house; host or cells: FreeStyle CHO cells, transient transfection with pMSRαneo/hGCGR; membrane fraction (35,000 rpm pellet)
# Assay: Glucagon binding inhibitory activity ([125I]-glucagon binding to glucagon receptor membrane protein)
# Details: test compound 10 μM; 0.4% DMSO = 0%, non-labeled glucagon 1 μM = 100%; read-out: inhibitory rate (%) at 10 μM
# How it was run: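 Receptor source was a membrane fraction of transiently transfected CHO cells bearing human receptor; 90 min room-temperature binding, filtration harvest, scintillation counting.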
# T1 sequence (P47871 26-477): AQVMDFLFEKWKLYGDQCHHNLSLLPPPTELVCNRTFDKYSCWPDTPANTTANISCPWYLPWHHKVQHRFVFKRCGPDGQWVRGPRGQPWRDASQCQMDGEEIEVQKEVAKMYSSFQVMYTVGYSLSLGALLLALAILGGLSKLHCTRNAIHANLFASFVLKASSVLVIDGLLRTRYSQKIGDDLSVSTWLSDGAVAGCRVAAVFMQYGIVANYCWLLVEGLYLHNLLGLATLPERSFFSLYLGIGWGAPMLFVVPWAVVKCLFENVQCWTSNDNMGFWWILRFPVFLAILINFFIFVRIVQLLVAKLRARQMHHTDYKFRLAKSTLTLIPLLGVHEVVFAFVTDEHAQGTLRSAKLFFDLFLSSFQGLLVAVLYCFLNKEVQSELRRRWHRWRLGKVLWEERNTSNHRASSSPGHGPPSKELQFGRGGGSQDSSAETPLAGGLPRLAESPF
row,inhibition at 10 µM,SMILES
1,99%,"CSCCOc1ccc2oc(C(Nc3ccc(C(=O)N(C)CCC(=O)O)cc3)C3CCCCC3)c(C)c2c1 (stereo not shown) [Example A147, 3-[({4-[(cyclohexyl{3-methyl-5-[2-(methylthio)ethoxy]-1-benzofuran-2-yl}methyl)amino]phenyl}carbonyl)(methyl)amino]propanoic acid]"
2,87%,"Cc1c(C(Nc2ccc(C(=O)N(C)CCC(=O)O)cc2)C2CCCCC2)oc2ccc(OCC3(C)COC3)cc12 (stereo not shown) [Example A196, 3-[({4-[(cyclohexyl{3-methyl-5-[(3-methyloxetan-3-yl)methoxy]-1-benzofuran-2-yl}methyl)amino]phenyl}carbonyl)(methyl)amino]propanoic acid]"
3,69%,"Cc1c(C(Nc2ccc(C(=O)NCCC(=O)O)cc2)C2CCCCC2)oc2ccc(Br)nc12 (stereo not shown) [Example A125, 3-{[(4-{[(5-bromo-3-methylfuro[3,2-b]pyridin-2-yl)(cyclohexyl)methyl]amino}phenyl)carbonyl]amino}propanoic acid]"
4,86%,"Cc1c(C(Nc2ccc(C(=O)NCCC(=O)O)cc2)C2CCCC2)oc2ccc(F)cc12 (stereo not shown) [Example A190, 3-{[(4-{[cyclopentyl(5-fluoro-3-methyl-1-benzofuran-2-yl)methyl]amino}phenyl)carbonyl]amino}propanoic acid]"
5,78%,"Cc1c(C(Nc2ccc(C(=O)NCCC(=O)O)cc2)C2CCCCC2)oc2ccc(C#N)cc12 (stereo not shown) [Example A98, 3-{[(4-{[(5-cyano-3-methyl-1-benzofuran-2-yl)(cyclohexyl)methyl]amino}phenyl)carbonyl]amino}propanoic acid]"
6,67%,"COCc1c(C(Nc2ccc(C(=O)NCCC(=O)O)cc2)C2CCCCC2)oc2ccc(F)cc12 (stereo not shown) [Example A47, 3-({[4-({cyclohexyl[5-fluoro-3-(methoxymethyl)-1-benzofuran-2-yl]methyl}amino)phenyl]carbonyl}amino)propanoic acid]"
7,58%,"COc1ccc2oc(C(Nc3ccc(C(=O)N(C)CCC(=O)O)cc3)C3CCCCC3)c(C#N)c2c1 (stereo not shown) [Example A109, 3-{[(4-{[(3-cyano-5-methoxy-1-benzofuran-2-yl)(cyclohexyl)methyl]amino}phenyl)carbonyl](methyl)amino}-propanoic acid]"
8,82%,"Cc1c(C(Nc2ccc(C(=O)N(C)CCC(=O)O)cc2)C2CCCCC2)oc2ccc(OCc3ccccc3)cc12 (stereo not shown) [Example A154, 3-[{[4-({[5-(benzyloxy)-3-methyl-1-benzofuran-2-yl](cyclohexyl)methyl}amino)phenyl]carbonyl}(methyl)amino]-propanoic acid]"
9,70%,"Cc1c(C(CC(C)C)Nc2ccc(C(=O)N(C)CCC(=O)O)cc2)oc2ccccc12 (stereo not shown) [Example A24, 3-{methyl[(4-{[3-methyl-1-(3-methyl-1-benzofuran-2-yl)butyl]amino}phenyl)carbonyl]amino}propanoic acid]"
10,77%,"CN(CCC(=O)O)C(=O)c1ccc(NC(c2cc3ccccc3s2)C2CCCCC2)cc1 (stereo not shown) [Example A5, 3-{[(4-{[1-benzothiophen-2-yl(cyclohexyl)methyl]amino}phenyl)carbonyl](methyl)amino}-propanoic acid]"
11,56%,"Cc1c(C(CC(C)C)Nc2ccc(C(=O)N(C)CCC(=O)O)cn2)sc2ccccc12 (stereo not shown) [Example A38, 3-{methyl[(6-{[3-methyl-1-(3-methyl-1-benzothiophen-2-yl)butyl]amino}pyridin-3-yl)carbonyl]amino}propanoic acid]"
12,62%,"COCc1nn(-c2cc(C(F)(F)F)ccn2)cc1C(Nc1ccc(C(=O)N(C)CCC(=O)O)cc1)C1CCCCC1 (stereo not shown) [Example 89, 3-[({4-[(cyclohexyl{3-(methoxymethyl)-1-[4-(trifluoromethyl)pyridin-2-yl]-1H-pyrazol-4-yl}methyl)amino]phenyl}carbonyl)(methyl)amino]propanoic acid]"
13,71%,"COc1ccc2cc(C(Nc3ccc(C(=O)NCCC(=O)O)cc3)C3CCCCC3)oc2c1 (stereo not shown) [Example A35, 3-{[(4-{[cyclohexyl(6-methoxy-1-benzofuran-2-yl)methyl]amino}phenyl)carbonyl]amino}propanoic acid]"
14,82%,"CCC(CC)C(Nc1ccc(C(=O)NCCC(=O)O)cc1)c1oc2ccc(F)cc2c1C (stereo not shown) [Example A191, 3-{[(4-{[2-ethyl-1-(5-fluoro-3-methyl-1-benzofuran-2-yl)butyl]amino}phenyl)carbonyl]amino}propanoic acid]"
15,72%,"Cc1c(C(CC(C)C)Nc2ccc(C(=O)N(C)CCC(=O)O)cc2)sc2ccccc12 (stereo not shown) [Example A32, 3-{methyl[(4-{[3-methyl-1-(3-methyl-1-benzothiophen-2-yl)butyl]amino}phenyl)carbonyl]amino}propanoic acid]"
16,85%,"Cc1c(C(Nc2ccc(C(=O)N(C)CCC(=O)O)cc2)C2CCCCC2)oc2ccc(N3CCOCC3)cc12 (stereo not shown) [Example A186, 3-[{[4-({cyclohexyl[3-methyl-5-(morpholin-4-yl)-1-benzofuran-2-yl]methyl}amino)phenyl]carbonyl}(methyl)amino]propanoic acid]"

row,inhibition at 10 µM,SMILES
1,70%,"COCc1nn(-c2ccccc2)cc1C(Nc1ccc(C(=O)NCCC(=O)O)cc1)C1CCCCC1 (stereo not shown) [Example 37, 3-({[4-({cyclohexyl[3-(methoxymethyl)-1-phenyl-1H-pyrazol-4-yl]methyl}amino)phenyl]carbonyl}amino)propanoic acid]"
2,74%,"Cc1c(C(Nc2ccc(C(=O)N(C)CCC(=O)O)cc2)C2CCCCC2)oc2ccccc12 (stereo not shown) [Example A16, 3-{[(4-{[cyclohexyl(3-methyl-1-benzofuran-2-yl)methyl]amino}phenyl)carbonyl](methyl)amino}propanoic acid]"
3,64%,"CC(C)Oc1nn(-c2ccc(OC(F)(F)F)cc2)cc1C(Nc1ccc(C(=O)N(C)CCC(=O)O)cc1)C1CCCCC1 (stereo not shown) [Example 65, 3-[({4-[(cyclohexyl{3-(1-methylethoxy)-1-[4-(trifluoromethoxy)phenyl]-1H-pyrazol-4-yl}methyl)amino]phenyl}carbonyl)(methyl)amino]propanoic acid]"
4,54%,"CCC(C)(C)n1cc(C(Nc2ccc(C(=O)NCCC(=O)O)cc2)C2CCCCC2)c(C)n1 (stereo not shown) [Example 43, 3-({[4-({cyclohexyl[1-(1,1-dimethylpropyl)-3-methyl-1H-pyrazol-4-yl]methyl}amino)phenyl]carbonyl}amino)propanoic acid]"
5,75%,"COCc1nn(-c2ccc(C(F)(F)F)cn2)cc1C(Nc1ccc(C(=O)N(C)CCC(=O)O)cc1)C1CCCCC1 (stereo not shown) [Example 30, 3-[({4-[(cyclohexyl{3-(methoxymethyl)-1-[5-(trifluoromethyl)pyridin-2-yl]-1H-pyrazol-4-yl}methyl)amino]phenyl}carbonyl)(methyl)amino]propanoic acid]"
6,69%,"COc1ccc(-n2cc(C(CC(C)C)Nc3ccc(C(=O)NCCC(=O)O)cc3)c(C3CC3)n2)cc1 (stereo not shown) [Example 44, 3-({[4-({1-[3-cyclopropyl-1-(4-methoxyphenyl)-1H-pyrazol-4-yl]-3-methylbutyl}amino)phenyl]carbonyl}amino)propanoic acid]"
7,75%,"COc1cccc(-n2cc(C(Nc3ccc(C(=O)N(C)CCC(=O)O)cc3)C3CCCCC3)c(C)n2)c1 (stereo not shown) [Example 70, 3-[{[4-({cyclohexyl[1-(3-methoxyphenyl)-3-methyl-1H-pyrazol-4-yl]methyl}amino)phenyl]carbonyl}(methyl)amino]propanoic acid]"
8,60%,"CCc1nn(-c2ccc(OC)cc2)cc1C(Nc1ccc(C(=O)N(C)CCC(=O)O)cc1)C1CCCCC1 (stereo not shown) [Example 51, 3-[{[4-({cyclohexyl[3-ethyl-1-(4-methoxyphenyl)-1H-pyrazol-4-yl]methyl}amino)phenyl]carbonyl}(methyl)amino]propanoic acid]"
9,84%,"Cc1c(C(Nc2ccc(C(=O)N(C)CCC(=O)O)cc2)C2CCCCC2)oc2ccc(OCC(C)(C)O)cc12 (stereo not shown) [Example A195, 3-[{[4-({cyclohexyl[5-(2-hydroxy-2-methylpropoxy)-3-methyl-1-benzofuran-2-yl]methyl}amino)phenyl]carbonyl}(methyl)amino]propanoic acid]"
10,70%,"Cc1c(C(Nc2ccc(C(=O)N(C)CCC(=O)O)cc2)C(C)C)oc2ccc(Oc3ccc(C(F)(F)F)cn3)cc12 (stereo not shown) [Example A206, 3-{methyl[(4-{[2-methyl-1-(3-methyl-5-{[5-(trifluoromethyl)pyridin-2-yl]oxy}-1-benzofuran-2-yl)propyl]amino}phenyl)carbonyl]amino}propanoic acid]"
11,96%,"Cc1c(C(Nc2ccc(C(=O)N(C)CCC(=O)O)cc2)C2CCCCC2)oc2ccc(-c3ccccc3)cc12 (stereo not shown) [Example A176, 3-{[(4-{[cyclohexyl(3-methyl-5-phenyl-1-benzofuran-2-yl)methyl]amino}phenyl)carbonyl](methyl)amino}propanoic acid]"
12,82%,"Cc1c(C(Nc2ccc(C(=O)N(C)CCC(=O)O)cc2)C2CCCC2)oc2ccc(F)cc12 (stereo not shown) [Example A68, 3-{[(4-{[cyclopentyl(5-fluoro-3-methyl-1-benzofuran-2-yl)methyl]amino}phenyl)carbonyl](methyl)amino}propanoic acid]"
13,62%,"CCc1c(C(CC(C)C)Nc2ccc(C(=O)N(C)CCC(=O)O)cc2)oc2ccccc12 (stereo not shown) [Example A31, 3-{[(4-{[1-(3-ethyl-1-benzofuran-2-yl)-3-methylbutyl]amino}phenyl)carbonyl](methyl)amino}propanoic acid]"
14,71%,"Cc1nn(-c2ccc(C(F)(F)F)cc2)cc1C(Nc1ccc(C(=O)N(C)CCC(=O)O)cc1)C1CCCCC1 (stereo not shown) [Example 28, 3-[({4-[(cyclohexyl{3-methyl-1-[4-(trifluoromethyl)phenyl]-1H-pyrazol-4-yl}methyl)amino]phenyl}carbonyl)(methyl)amino]propanoic acid]"
15,80%,"Cc1nn(-c2ccc(Cl)cc2)cc1C(Nc1ccc(C(=O)NCCC(=O)O)cc1)C1CCCCC1 (stereo not shown) [Example 19, 3-({[4-({[1-(4-chlorophenyl)-3-methyl-1H-pyrazol-4-yl](cyclohexyl)methyl}amino)phenyl]carbonyl}amino)propanoic acid]"
